# In paper PMC4789278, “Pharmacological inhibition of LSD1 for the treatment of MLL-rearranged leukemia” (Journal of Hematology & Oncology, 2016):
# “Also recorded” adds a separate entry of the source.
# Legend:
# MV4-11 leukemia cells = test: Antiproliferation assay (XTT), MV4-11; assay type: cell-based; settings: Homo sapiens, MV4-11, 360 h; 15-day treatment; MLL-rearranged leukemia; read-out: MV4-11 EC50 (antiproliferative)
# Description: Next, these three compounds were tested for their cellular activity against proliferation of MV4-11 leukemia cells bearing MLL-AF4 fusion oncogene.
# (§1) These compounds were incubated with a panel of six human leukemia and solid tumor cell lines, including two MLL-rearranged leukemia cells MV4-11 and Molm-13 containing fusion oncogenes MLL-AF4 and -AF9, respectively. […] Also included in the studies are breast cancer MCF-7 and prostate cancer LNCaP cells.
# (§2) Proliferation inhibition assay for suspension leukemia cells was performed using an XTT assay kit (Roche) with our previously described method. Proliferation inhibition assay for solid tumor cell lines MCF-7 and LNCaP was performed using our previous described MTT assay. The antiproliferation EC50 values were determined by Prism, and the reported results were the mean values of at least three independent experiments.
# [1] = tested on: breast cancer MCF-7 cells; test: Antiproliferation assay (MTT), MCF-7; assay type: cell-based; settings: Homo sapiens, MCF7, 360 h, 15-day treatment, read-out: MCF-7 EC50 (antiproliferative)
# Description: as §1, §2
# [2] = Toxicity in mice (weight, blood test); assay type: in vivo
# Source text: Continuous infusion of 1 using a subcutaneously implanted osmotic pump was used for in vivo studies to avoid the unfavorable pharmacokinetics because this route may provide a stable plasma drug concentration.
# [3] = tested on: gene expression in MV4-11 cells; test: Microarray / GSEA; assay type: cell-based, human; settings: 7 days
# Description: To this end, triplicate samples of MV4-11 cells were treated with compounds 1 and 2 and the RNA of these samples was isolated, amplified, and hybridized to Illumina HT-12 microarrays. The microarray data were log2-transformed and normalized to have the same median values for comparative analysis. Moderate t test was applied to search for genes that were differentially expressed between the control and compound treated samples, using the filter thresholds of p values <0.05 and fold changes >4. […] Next, we used gene set enrichment analysis (GSEA) in an effort to find the possible mechanism(s) for the LSD1 inhibition-mediated antileukemia activity.
# For 7 days, 10^5 cells/well were incubated with compounds. Cells were treated with Trizol® Reagent, frozen in liquid nitrogen, and shipped to Asuragen, Inc. (Austin, TX) for microarray experiments. RNA from these samples was isolated, amplified, and hybridized to Illumina Human HT-12 v4 arrays according to the manufacturer’s protocol. Microarray data were log2 transformed and normalized to have the same median for all the arrays. Moderate t statistics were used to find genes that were differentially expressed between the samples of interest. Benjamini and Hochberg method was used to correct for multiple comparisons. […]
# [4] = set-up: method as in PMID 22754608; settings: mice; cited from earlier work
# MV4-11 leukemia = test: Systemic mouse model of MV4-11 leukemia
# Source text: A mouse model of systemic MV4-11 leukemia was established by injecting 10^7 MV4-11 cells/mouse intravenously through the tail veil into NOD-SCID mice with an engraftment rate of 100 %. After 2 weeks, human CD33^+/CD45^+ leukemia cells (0.1–0.5 %) can be detected by FACS in blood samples of the mice. The disease progressed rapidly, causing deaths in ~6 weeks after leukemia transplantation. Thus, upon detection of MV4-11 engraftments, mice were randomly separated into treatment and control groups.
# NOD-SCID mice (4 to 6 weeks old) were obtained from Jackson lab (Bar Harbor, ME, USA) and maintained under specific pathogen-free conditions; 10^7 MV4-11 cells/mouse were injected intravenously through the tail veil, and animal weights were monitored twice a week. After 2 weeks when the blood samples showing 0.1–0.5 % CD45+/CD33+ human leukemia cells, mice were randomly segregated into control and treatment groups. […] Animals were sacrificed when >20 % weight loss, hunched posture, ruffled fur, or inactivity was observed. The peripheral blood, spleen, and bone marrow cells were isolated and tested for CD45^+/CD33^+ using FACS. Log-rank analysis was used to determine statistical significance of the survival curves using Prism 5.0.
# human MAO-B = molecular target: T1, human MAO-B (Homo sapiens, UniProt P27338); test: MAO-B inhibition (MAO-Glo); assay type: biochemical
# T1 construct: purchased Sigma
# T1 sequence (P27338 1-520): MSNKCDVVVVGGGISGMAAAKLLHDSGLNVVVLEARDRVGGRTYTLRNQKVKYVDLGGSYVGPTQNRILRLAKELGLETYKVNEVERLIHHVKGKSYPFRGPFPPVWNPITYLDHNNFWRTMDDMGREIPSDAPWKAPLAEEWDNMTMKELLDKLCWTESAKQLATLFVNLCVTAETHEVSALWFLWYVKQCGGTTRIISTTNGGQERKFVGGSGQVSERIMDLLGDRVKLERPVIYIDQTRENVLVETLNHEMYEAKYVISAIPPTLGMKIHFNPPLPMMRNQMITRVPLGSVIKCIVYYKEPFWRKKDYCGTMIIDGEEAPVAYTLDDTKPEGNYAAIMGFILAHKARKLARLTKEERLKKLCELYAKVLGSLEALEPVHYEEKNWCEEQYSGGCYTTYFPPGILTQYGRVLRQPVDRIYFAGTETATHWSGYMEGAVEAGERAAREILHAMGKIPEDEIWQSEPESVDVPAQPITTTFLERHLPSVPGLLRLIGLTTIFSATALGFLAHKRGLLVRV
# Description: Because MAO-A and -B play important roles in the degradation of neurotransmitters (e.g., serotonin and dopamine) in the central nervous system, selective inhibition for LSD1 is highly desirable.
# Recombinant human MAO-A and -B were purchased from Sigma. The inhibitory activity was determined using MAO-Glo assay kit (Promega). In brief, following the manufacturer’s protocol, assays were performed in 384-well white plates (Corning) using MAO-A or -B (100 nM) with a final volume of 20 μL. Reactions were quenched after 60 min by adding reconstituted luciferin detection reagent (20 μL/well); 20 min after addition of the detection reagent, the luminescence of each well was measured using Beckman DTX-880 microplate reader. IC50 calculation was similar to that of LSD1.
# MV4-11 cells = test: Cell migration assay (transwell); assay type: cell-based, human; settings: treatment for 4 days
# Description: Importantly, only these stem-like cancer cells can form new tumors when transplanted into a new host, while the other non-stem cancer cells fail to do so. These stem-like cancer cells are more drug resistant and believed to be responsible for tumor metastasis and relapse. […] CD14 and CD11b are two cell surface proteins characteristic to differentiated macrophages/monocytes. […] Similarly, incubation with 2 led to considerably more CD11b^+ cells (Fig. 3b).
# Cell migration assay was performed in a 24-well transwell plate with 8-μm polyethylene terephthalate membrane filters (Falcon cell culture insert; Becton-Dickinson) separating the lower from the upper culture chambers, according to the manufacturer’s instructions. […] Triplicate samples of 10^6 cells/well were plated in the upper chamber containing serum-free RPMI-1640. RPMI-1640 supplemented with 10 % FBS in the bottom chamber was used to attract cells to move through the filter. Cells were allowed to incubate at 37 °C for 4 h, after which the cells that had migrated through the pores were harvested in the bottom chamber and counted. Results are presented as means ± s.d.
SMILES,EC50 (MV4-11 leukemia cells),EC50 [1],"weight losses and visible signs of toxicity ([2]; 2.5 and 5 mg/kg/day for 28 days, osmotic pump)",blood cell counts and hemoglobin vs control ([2]; blood test on day 28),expression of hematopoietic differentiation and pro-apoptotic gene sets (GSEA) [3],half-life in the plasma [4],less leukemia cells in the blood (MV4-11 leukemia; 2.5 mg/kg/day for 28 days),less leukemia cells in the spleen (MV4-11 leukemia; 2.5 mg/kg/day for 28 days),reduction of MV4-11 leukemia cells in the bone marrow (MV4-11 leukemia; 2.5 mg/kg/day for 28 days),"human CD33+/CD45+ leukemia cells in the bone marrow (average) (MV4-11 leukemia; 2.5 mg/kg/day for 28 days, control 33.6 %)","median survival (MV4-11 leukemia; 2.5 mg/kg/day for 28 days, control 34.5 days)","inhibition of leukemia burdens in the bone marrow, spleen, and peripheral blood (MV4-11 leukemia; 5 mg/kg)",inhibition rate in the blood (MV4-11 leukemia; 5 mg/kg/day for 28 days),inhibition rate in the bone marrow (MV4-11 leukemia; 5 mg/kg/day for 28 days),inhibition rate in the spleen (MV4-11 leukemia; 5 mg/kg/day for 28 days),"median survival (MV4-11 leukemia; 5 mg/kg/day for 28 days, control 45 days)",IC50 (human MAO-B),ability of MV4-11 cells to migrate through a membrane with 8-μm pores (MV4-11 cells)
CN1CCN(C(=O)CNC2CC2c2ccc(OCc3ccccc3)cc2)CC1 (stereo not shown) [Compound 1],0.01 µM,1.6 µM,did not cause weight losses as well as any visible signs of toxicity,no significant differences; also recorded: no significant changes in blood cell counts,significant upregulation,~ 1 h,92%,81%,80%,6.7%,43 days,> 89%,99%,96%,89%,60 days,–,–
CN1CCN(C(=O)CNC2CC2c2ccc(-c3ccc(F)nc3)cc2)CC1 (stereo not shown) [Compound 2],–,–,–,–,significant upregulation,–,–,–,–,–,–,–,–,–,–,–,480 µM,reduced ability for MV4-11 cells to migrate
